Assays:
Details in all cases: 72 h
Vero E6 [1] = assay: drug sensitivity score (DSS) for viability; higher = more toxic; extreme values may be limits of the assay
Calu-3 [2] = assay: as above
Caco-2 [3] = assay: as above
HepG2 [4] = assay: as above
U2OS [5] = assay: as above
Vero E6 [6] = assay: cell viability relative to DMSO; higher = less toxic
Calu-3 [7] = assay: as above
Caco-2 [8] = assay: as above
HepG2 [9] = assay: as above
U2OS [10] = assay: as above
Vero E6 [11] = assay: relative viability EC50 (midpoint between 100% and the lowest measured viability); higher = less toxic
Calu-3 [12] = assay: as above
Caco-2 [13] = assay: as above
HepG2 [14] = assay: as above
U2OS [15] = assay: as above

| SMILES | drug sensitivity score (Vero E6 [1]) | drug sensitivity score (Calu-3 [2]) | drug sensitivity score (Caco-2 [3]) | drug sensitivity score (HepG2 [4]) | drug sensitivity score (U2OS [5]) | cell viability (Vero E6 [6]; 1 nM) | cell viability (Vero E6 [6]; 10 nM) | cell viability (Vero E6 [6]; 100 nM) | cell viability (Vero E6 [6]; 1000 nM) | cell viability (Vero E6 [6]; 10000 nM) | cell viability (Calu-3 [7]; 1 nM) | cell viability (Calu-3 [7]; 10 nM) | cell viability (Calu-3 [7]; 100 nM) | cell viability (Calu-3 [7]; 1000 nM) | cell viability (Calu-3 [7]; 10000 nM) | cell viability (Caco-2 [8]; 1 nM) | cell viability (Caco-2 [8]; 10 nM) | cell viability (Caco-2 [8]; 100 nM) | cell viability (Caco-2 [8]; 1000 nM) | cell viability (Caco-2 [8]; 10000 nM) | cell viability (HepG2 [9]; 1 nM) | cell viability (HepG2 [9]; 10 nM) | cell viability (HepG2 [9]; 100 nM) | cell viability (HepG2 [9]; 1000 nM) | cell viability (HepG2 [9]; 10000 nM) | cell viability (U2OS [10]; 1 nM) | cell viability (U2OS [10]; 10 nM) | cell viability (U2OS [10]; 100 nM) | cell viability (U2OS [10]; 1000 nM) | cell viability (U2OS [10]; 10000 nM) | relative viability EC50 (Vero E6 [11]) | relative viability EC50 (Calu-3 [12]) | relative viability EC50 (Caco-2 [13]) | relative viability EC50 (HepG2 [14]) | relative viability EC50 (U2OS [15]) |
| --- | --- | --- | --- | --- | --- | --- | --- | --- | --- | --- | --- | --- | --- | --- | --- | --- | --- | --- | --- | --- | --- | --- | --- | --- | --- | --- | --- | --- | --- | --- | --- | --- | --- | --- | --- |
| Cc1sc(C)c(C(=O)NC2(c3ccc(C(=O)O)cc3)CC2)c1Cc1ccc(C(F)(F)F)cc1 [MK-2894] | 0 | 0 | 0 | 0 | 0 | 93.7% | 92.9% | 96.5% | 93.6% | 85.9% | 99.3% | 107% | 103% | 101% | 109% | 94.8% | 95.7% | 89% | 101% | 101% | 104% | 99.9% | 111% | 96.4% | 96.4% | 93.1% | 99.8% | 100% | 102% | 106% | > 10 µM | > 10 µM | > 10 µM | > 10 µM | > 10 µM |
| C[N+](C)(CCOc1ccccc1)Cc1ccccc1 [bephenium-hydroxynaphthoate] | 0 | 0 | 0 | 0 | 0 | 98.2% | 96.9% | 94.8% | 92.6% | 103% | 102% | 103% | 90% | 98% | 102% | 96.1% | 99.4% | 106% | 102% | 102% | 100% | 98.4% | 92.3% | 96.8% | 100% | 93.7% | 99.4% | 93.5% | 101% | 102% | > 10 µM | > 10 µM | > 10 µM | > 10 µM | > 10 µM |
| Cc1ncc(CO)c(C=O)c1O [pyridoxal] | 0 | 0 | 0 | 1.3 | 0 | 102% | 92.6% | 96% | 94.4% | 102% | 105% | 91.4% | 99.9% | 99.7% | 118% | 114% | 104% | 104% | 112% | 92.1% | 91% | 81.7% | 102% | 94.1% | 80% | 98.6% | 95.7% | 103% | 103% | 99.9% | > 10 µM | > 10 µM | > 10 µM | > 10 µM | > 10 µM |
| O=C(/C=C/c1ccc2c(c1)OCO2)N1CCCCC1 [ilepcimide] | 0 | 0 | 0 | 0 | 0 | 91% | 98.1% | 94.2% | 96.6% | 97.7% | 99.5% | 108% | 106% | 102% | 102% | 96.3% | 104% | 106% | 130% | 102% | 102% | 97.2% | 106% | 112% | 103% | 98.2% | 94.6% | 98.3% | 95.8% | 97.1% | > 10 µM | > 10 µM | > 10 µM | > 10 µM | > 10 µM |
| C[C@@H](N)Cc1c[nH]c2ccc(O)cc12 [alpha-methylserotonin] | 0 | 0 | 0 | 0 | 0 | 91.1% | 94.5% | 94.4% | 90.3% | 104% | 89.6% | 99.1% | 95.3% | 92.9% | 91.1% | 96.1% | 93% | 88% | 92.8% | 101% | 105% | 102% | 100% | 96.9% | 105% | 99% | 102% | 99.8% | 97.4% | 107% | > 10 µM | > 10 µM | > 10 µM | > 10 µM | > 10 µM |
| COCCNC(=O)COc1ccc(OCCNC[C@H](O)COc2ccccc2)cc1 [ZD-7114] | 0 | 0 | 0 | 0 | 0 | 103% | 101% | 96.7% | 104% | 96.5% | 99.1% | 97.2% | 106% | 90% | 108% | 95.5% | 95.1% | 94.7% | 86.2% | 103% | 100% | 106% | 93.7% | 104% | 97.1% | 98.4% | 94.5% | 104% | 102% | 102% | > 10 µM | > 10 µM | > 10 µM | > 10 µM | > 10 µM |
| CCN(CC)Cc1ccc2cc(COC(=O)Nc3ccc(C(=O)NO)cc3)ccc2c1 [givinostat] | 13.8 | 15.6 | 13.1 | 17 | 14.3 | 94.7% | 97.7% | 96.7% | 31.6% | -0.1% | 88.3% | 94.6% | 77.1% | 30.8% | 12.9% | 97.8% | 89.7% | 93.2% | 38.4% | 0.8% | 99.8% | 102% | 80.9% | 20.4% | 0.1% | 99.6% | 93.2% | 92.7% | 30.8% | 0.6% | 0.653 µM | 0.263 µM | 0.686 µM | 0.327 µM | 0.561 µM |
| N[C@@H]1CONC1=O [cycloserine-(D)] | 0 | 0 | 0 | 0 | 0 | 99.6% | 104% | 98.2% | 99.8% | 103% | 99.6% | 102% | 97.2% | 105% | 96.7% | 89.5% | 96.2% | 100% | 98.7% | 105% | 106% | 101% | 104% | 89.7% | 108% | 96.7% | 96.3% | 96.4% | 96.7% | 97% | > 10 µM | > 10 µM | > 10 µM | > 10 µM | > 10 µM |
| N#C/C(=C\c1cn(-c2ccccc2)c2ccccc12)C(=O)O [UK-5099] | 0 | 0 | 0 | 0 | 0 | 98.1% | 102% | 99.7% | 99.8% | 101% | 106% | 90.1% | 106% | 93.1% | 106% | 98.1% | 106% | 100% | 94% | 104% | 105% | 101% | 101% | 97% | 95.7% | 98.5% | 98.8% | 95.4% | 103% | 106% | > 10 µM | > 10 µM | > 10 µM | > 10 µM | > 10 µM |
| CC1(C)OC(=O)NC1=O [dimethadione] | 0 | 0 | 0 | 0 | 0 | 112% | 108% | 108% | 97.7% | 102% | 92.4% | 107% | 100% | 105% | 109% | 99.9% | 98.9% | 105% | 97.7% | 98.3% | 106% | 102% | 96.9% | 95.9% | 95.1% | 101% | 103% | 95% | 98.6% | 96.2% | > 10 µM | > 10 µM | > 10 µM | > 10 µM | > 10 µM |
| Cc1cn([C@H]2C=C[C@@H](CO)O2)c(=O)[nH]c1=O [stavudine] | 0 | 0 | 0 | 0 | 0 | 92.7% | 94.5% | 95.9% | 104% | 105% | 94.1% | 102% | 92.9% | 101% | 108% | 92.7% | 92.4% | 82.9% | 113% | 88.6% | 88.4% | 91.5% | 93.8% | 98.4% | 95% | 102% | 99.7% | 103% | 96.7% | 106% | > 10 µM | > 10 µM | > 10 µM | > 10 µM | > 10 µM |

Reference: the supplement of paper PMC13380429
